Values of other authors in US20060088904A1, “Methods for the synthesis of astaxanthin” (priority 2004, published 2006).

How the values were obtained:
[1] = test system: peroxyl radical chain reaction in liposome systems; conditions: appropriate dose
[2] = test system: transformed cells as well as normal prostatic epithelium; conditions: cultured human cells; alone and/or in combination with other antioxidants (e.g. vitamin E)
[3] = test system: cigarette-smoke induced lung pathology; conditions: ferret

| Structure (SMILES) | suppression of peroxyl radical chain reaction [1] | growth inhibition [2] | protection against cigarette-smoke induced lung pathology [3] |
| --- | --- | --- | --- |
| CC1=C(/C=C/C(C)=C/C=C/C(C)=C/C=C/C=C(C)/C=C/C=C(C)/C=C/C2=C(C)C(=O)C(O)CC2(C)C)C(C)(C)CC(O)C1=O (stereo not drawn) [astaxanthin] | completely suppress |  |  |
| CC(C)=CCC/C(C)=C/C=C/C(C)=C/C=C/C(C)=C/C=C/C=C(C)/C=C/C=C(C)/C=C/C=C(\C)CCC=C(C)C [lycopene] |  | growth inhibitory | protective |
